# Experimental data taken from patent US20200281908A1, “MEANS FOR TREATING DEMENTIA OF VARIOUS ETIOLOGY” (priority 2016, published 2020).
# How the values were obtained:
# [1] = test system: streptozotocin-induced rat model of AD; experiment: CPAR test on a streptozotocin-induced rat model of AD; assay type: in vivo; conditions: for Latent period of going into the dark chamber, Recalling, 24 hours later / Latent period of going into the dark chamber, Recalling, 7 days later / Latent period of going into the dark chamber, Recalling, 14 days later / Latent period of going into the dark chamber, Training LP1 / Number of animals with amnesia that went into the dark chamber during the CPAR recalling test/Number of animals in the group, 24 hours later / Number of animals with amnesia that went into the dark chamber during the CPAR recalling test/Number of animals in the group, 7 days later / Number of animals with amnesia that went into the dark chamber during the CPAR recalling test/Number of animals in the group, 14 days later / percentage of rats with reflex impairment (went into the dark chamber), 24 hours later / percentage of rats with reflex impairment (went into the dark chamber), 7 days later / percentage of rats with reflex impairment (went into the dark chamber), 14 days later: rats, n = 12; for Latent period of going into the dark chamber, Recalling, 24 hours later / Latent period of going into the dark chamber, Recalling, 7 days later / Latent period of going into the dark chamber, Recalling, 14 days later / Latent period of going into the dark chamber, Training LP1: M ± m
# Experimental: Example 2. The aim of the study is to assess the specific pharmacological activity of the liposomal formulation of methyl 4-[2-oxo-1,2-bis[[2-(4-pyridinyl)ethyl]amino]ethyl]benzoate succinate in comparison with the pharmaceutical substance of this compound and memantine on memory loss when modelling AD using neurotoxin streptozotocin in rats.
# In this study, the modelling of AD was performed using the procedure recommended in the Methodological Recommendations for the preclinical study of nootropic drugs.
# According to the procedure, AD modeling was performed by introducing streptozotocin toxin into the cerebral ventricles of the rat.
# The surgical neurotoxin injection into the brain was performed in anaesthetized animals (with chloral hydrate at a dose of 200 mg/kg, ip) in a stereotaxic apparatus.
# First, the cranial trepanation was performed in animals according to the stereotaxic coordinates; AP (1.0), L (1.5-2). Streptozotocin at a dose of 3 mg/kg was injected bilaterally into the lateral ventricles of the brain according to the stereotaxic coordinates: AP (1.0): L (1.5-2): H (3.0). The toxin was injected at a rate of 0.1 μl per minute; the injected solution volume was 5 μl in each ventricle
# The cranial trepanation of the control (sham-operated) animals was performed according to the stereotaxic coordinates: AP (1.0): L (1.5-2), and distilled water was then injected bilaterally into the lateral ventricles of the brain also according to the stereotaxic coordinates, in the same volume and at the same rate as the studied drugs.
# 1 hour after surgery, the intragastric administration of substances to rats started, which continued for 14 days.
# The test pharmaceutical substance (Prototype) and the current liposomal formulation of this compound were administered to rats in 2 doses of 0.25 mg/kg and 1 mg/kg. Memantine at a dose of 1 mg/kg. Distilled water was administered to control animals.
# The day after the last injection of substances, procedures that allow testing the training and memory of animals started.
# Evaluation of the antiamnesic effect of PAM-12 in comparison with memantine was performed using the CPAR method. A detailed description of the CPAR method is given in Example 1. […] Memory loss was determined in the terms of the reduction of the latent time of the CPAR and increase in the number of animals that went into the dark chamber during reflex recalling test, compared to that of the control
# The animals were randomly divided into 8 arms.
# 1. Intact control—distilled water, intragastrically (i.g.), 14 days-12 rats.
# 2. Control—sham-operated animals—distilled water, i.g. 14 days-12 rats.
# 3. Active control—injection of streptozotocin (STZ) 3 mg/kg into the cerebral ventricles+distilled water, i.g., 14 days-12 rats
# 4. Prototype 0.25 mg/kg, i.g., 14 days: the first injection 1 hour after the injection of STZ into the cerebral ventricles and then daily for 14 days-12 rats.
# 5. Prototype 1.0 mg/kg, i.g., 14 days: the first injection 1 hour after the injection of STZ into the cerebral ventricles and then daily for 14 days-12 rats.
# 6. Current liposomal formulation 0.25 mg/kg, i.g., 14 days: the first injection 1 hour after the injection of STZ into the cerebral ventricles and then daily for 14 days-12 rats
# 7. Current liposomal formulation 1.0 mg/kg, i.g., 14 days: the first injection 1 hour after the injection of STZ into the cerebral ventricles and then daily for 14 days-12 rats.
# 8. Memantine 1 mg/kg. i.g., 14 days: the first injection 1 hour after the injection of STZ into the cerebral ventricles and then daily for 14 days-12 rats.
# [2] = test system: CPAR amnesia caused by MES in rats; experiment: CPAR (conditioned passive avoidance reflex) amnesia caused by maximal electroshock seizure (MES); assay type: in vivo, rat; conditions: n = 10; for CPAR recalling test 24 hours later: Latent time of the reflex / CPAR training Latent time of the reflex: M ± m
# Text: Example 1. The aim of the study is to assess the effect of the liposomal formulation of methyl 4-[2-oxo-1,2-bis[[2-(4-pyridinyl)ethyl]amino]ethyl]benzoate succinate on conditioned passive avoidance reflex (CPAR) amnesia caused by maximal electroshock seizure (MES) in comparison with the pharmaceutical substance of this compound and piracetam in rats.
# CPAR is a basic method for studying the effects of drugs affecting memory in any manner whatsoever. When exposed to CPAR, it is possible to identify both memory improvement and its deterioration (amnesic effect). CPAR is based on the inborn hole exploratory behaviour of rodents—the tendency to hide in a limited darkened space.
# The apparatus for studying the action of drugs is a dark chamber with an electrode floor. The dark chamber is connected through a square guillotine door with a hinged platform. The hinged platform is illuminated by a 60 watt lamp. The dark chamber is located oil the laboratory table, and the platform hangs above the floor at a height of 800 mm.
# First, CPAR was developed in rats. Rats were placed on a lighted platform in from of the dark chamber of the apparatus with their tail toward the inlet and recorded latent time of the reflex. Then, in the dark chamber, the rat received a single 10-second pain stimulation with an electric current (0.3 mA) through the electrode floor (training)
# Amnesia was invoked by MES Electric stimulus (250 V, 115-120 mA, 50 Hz, for 0.1 sec) for obtaining MES was applied to the rat through special cornal (ocular) electrodes, previously soaked in saline MES was performed directly after CPAR training.
# Experimental groups. The animals were divided into 7 arms: • Arm I: control without amnesia (saline). • Arm II: control with amnesia (MES) • Arm III: Prototype 0.25 mg/kg+MES. • Arm IV: Prototype 1.0 mg/kg+MES. • Arm V: Current liposomal formulation 0.25 mg/kg+MES. • Arm VI: Current liposomal formulation 1.0 mg/kg+MES. • Arm VII: Piracetam 400 mg/kg+MES.
# The prototype and the current liposomal composition were administered intragastrically. Piracetam was administered once intraperitoneally 40 minutes before the experiment
# [3] = 1.0 mg/kg i.g. + STZ (memantine printed p.o.)
# [4] = 400 mg/kg once intraperitoneally + MES
# [5] = 0.25 mg/kg once intragastrically + MES
# [6] = 1 mg/kg once intragastrically + MES
smiles,measurement,setting,value
CC12CC3CC(C)(C1)CC(N)(C3)C2 [Memantine],antiamnesic effect in rats of the streptozotocin-induced AD model,[1]; 1 mg/kg,pronounced antiamnesic effect
same,"Latent period of going into the dark chamber, Recalling, 24 hours later",[1]; 1.0 mg/kg i.g. 14 days + STZ,166.4 ± 13.6 s
same,"Latent period of going into the dark chamber, Recalling, 7 days later",[1]; 1.0 mg/kg i.g. 14 days + STZ,166.4 ± 13.6 s
same,"Latent period of going into the dark chamber, Recalling, 14 days later",[1]; 1.0 mg/kg i.g. 14 days + STZ,143.5 ± 19.2 s
same,"Latent period of going into the dark chamber, Training LP1",[1]; 1.0 mg/kg i.g. 14 days + STZ,20.4 ± 3.4 s
same,"Number of animals with amnesia that went into the dark chamber during the CPAR recalling test/Number of animals in the group, 24 hours later",[1]; [3],1/12
same,"Number of animals with amnesia that went into the dark chamber during the CPAR recalling test/Number of animals in the group, 7 days later",[1]; [3],1/12
same,"Number of animals with amnesia that went into the dark chamber during the CPAR recalling test/Number of animals in the group, 14 days later",[1]; [3],3/12
same,"percentage of rats with reflex impairment (went into the dark chamber), 24 hours later",[1]; [3],8.3%
same,"percentage of rats with reflex impairment (went into the dark chamber), 7 days later",[1]; [3],8.3%
same,"percentage of rats with reflex impairment (went into the dark chamber), 14 days later",[1]; [3],25%
same,"number of rats who forgot about the pain stimulation, times less compared to Active Control group","[1]; 1 mg/kg, 24 hours after the CPAR training",5 times
same,"number of rats who forgot about the pain stimulation, times less compared to Active Control group","[1]; 1 mg/kg, 7 days after the CPAR training",7 times
same,latent period longer than in the Active control group,"[1]; 1 mg/kg, 7 days later",1.5 times
same,"number of rats who forgot about the pain stimulation, times less compared to Active Control group","[1]; 1 mg/kg, 14 days after the CPAR training",2.7 times
same,latent period longer than in the Active control group,"[1]; 1 mg/kg, 14 days later",1.9 times
NC(=O)CN1CCCC1=O [Piracetam],CPAR recalling test 24 hours later: Latent time of the reflex,[2]; [4],97.17 ± 21.43 s
same,CPAR training Latent time of the reflex,[2]; [4],19.11 ± 5.28 s
same,"CPAR recalling test 24 hours later: Number of animals that did not go into the dark chamber, %",[2]; [4],50%
"COC(=O)c1ccc(C(NCCc2ccncc2)C(=O)NCCc2ccncc2)cc1.O=C(O)CCC(=O)O (stereo not shown) [Prototype, methyl 4-[2-oxo-1,2-bis[[2-(4-pyridinyl)ethyl]amino]ethyl]benzoate succinate]","Latent period of going into the dark chamber, Recalling, 24 hours later",[1]; 0.25 mg/kg i.g. 14 days + STZ,133.1 ± 13.3 s
same,"Latent period of going into the dark chamber, Recalling, 7 days later",[1]; 0.25 mg/kg i.g. 14 days + STZ,121.3 ± 17.8 s
same,"Latent period of going into the dark chamber, Recalling, 14 days later",[1]; 0.25 mg/kg i.g. 14 days + STZ,102.8 ± 19.4 s
same,"Latent period of going into the dark chamber, Training LP1",[1]; 0.25 mg/kg i.g. 14 days + STZ,24.3 ± 5.1 s
same,"Number of animals with amnesia that went into the dark chamber during the CPAR recalling test/Number of animals in the group, 24 hours later",[1]; 0.25 mg/kg i.g. + STZ,4/12
same,"Number of animals with amnesia that went into the dark chamber during the CPAR recalling test/Number of animals in the group, 7 days later",[1]; 0.25 mg/kg i.g. + STZ,5/12
same,"Number of animals with amnesia that went into the dark chamber during the CPAR recalling test/Number of animals in the group, 14 days later",[1]; 0.25 mg/kg i.g. + STZ,6/12
same,"percentage of rats with reflex impairment (went into the dark chamber), 24 hours later",[1]; 0.25 mg/kg i.g. + STZ,33.3%
same,"percentage of rats with reflex impairment (went into the dark chamber), 7 days later",[1]; 0.25 mg/kg i.g. + STZ,41.7%
same,"percentage of rats with reflex impairment (went into the dark chamber), 14 days later",[1]; 0.25 mg/kg i.g. + STZ,50%
same,"Latent period of going into the dark chamber, Recalling, 24 hours later",[1]; 1.0 mg/kg i.g. 14 days + STZ,147.7 ± 16.2 s
same,"Latent period of going into the dark chamber, Recalling, 7 days later",[1]; 1.0 mg/kg i.g. 14 days + STZ,132.3 ± 2.8 s
same,"Latent period of going into the dark chamber, Recalling, 14 days later",[1]; 1.0 mg/kg i.g. 14 days + STZ,124.9 ± 20.3 s
same,"Latent period of going into the dark chamber, Training LP1",[1]; 1.0 mg/kg i.g. 14 days + STZ,30.1 ± 12.1 s
same,"Number of animals with amnesia that went into the dark chamber during the CPAR recalling test/Number of animals in the group, 24 hours later",[1]; [3],3/12
same,"Number of animals with amnesia that went into the dark chamber during the CPAR recalling test/Number of animals in the group, 7 days later",[1]; [3],4/12
same,"Number of animals with amnesia that went into the dark chamber during the CPAR recalling test/Number of animals in the group, 14 days later",[1]; [3],5/12
same,"percentage of rats with reflex impairment (went into the dark chamber), 24 hours later",[1]; [3],25%
same,"percentage of rats with reflex impairment (went into the dark chamber), 7 days later",[1]; [3],33.3%
same,"percentage of rats with reflex impairment (went into the dark chamber), 14 days later",[1]; [3],41.7%
same,CPAR recalling test 24 hours later: Latent time of the reflex,[2]; [5],107.86 ± 15.12 s
same,CPAR training Latent time of the reflex,[2]; [5],20.38 ± 4.38 s
same,CPAR recalling test 24 hours later: Latent time of the reflex,[2]; [6],118.13 ± 17.26 s
same,CPAR training Latent time of the reflex,[2]; [6],13.29 ± 2.78 s
